Experimental data reported in ChEMBL document CHEMBL5390201, “The Natural Alkaloid (-)-N-Hydroxyapiosporamide Suppresses Colorectal Tumor Progression as an NF-κB Pathway Inhibitor by Targeting the TAK1-TRAF6 Complex” (J Nat Prod, 2023).
The source made the active and inactive calls. No cut-off for these calls is given here.

Assays:
HCT-116 [1] = test: Induction of apoptosis in human HCT-116 cells assessed as increase in cleavage of PARP measured for 24 hrs by Western blot analysis; type: functional, cell-based; conditions: dose 0-10 µM
HT-29 [2] = test: Induction of apoptosis in human HT-29 cells assessed as late apoptotic cells at 5 uM incubated for 24 hrs by Annexin V-FITC/PI staining based flow cytometric analysis (reference value: 1.56 %); type: functional
HT-29 [3] = test: Induction of apoptosis in human HT-29 cells assessed as early apoptotic cells at 5 uM incubated for 24 hrs by Annexin V-FITC/PI staining based flow cytometric analysis (reference value: 5.29 %); type: functional
Mus musculus [4] = test: Anti-inflammatory activity in AOM/DSS-induced BALB/c mouse model inflammatory bowel disease assessed as reduction in DAI score at 5 to 10 mg/kg, ip pretreated with AOM for 7 days further replaced with DSS for 7 days and repeated for 2 times followed by every 2 days compound treatment for […] starting from day 50 and measured once a week; type: functional, organism-based; conditions: dose 5-10 mg/kg, time 21.0 day
RAW264.7 = test: Inhibition of LPS-induced NFkappaB activation in mouse RAW264.7 cells assessed as inhibition of IkappaBalpha phosphorylation preincubated for 24 hrs followed by LPS stimulation for 3 hrs by Western blot analysis; type: cell-based; conditions: dose 1-10 µM, time 27.0 hrs
[5] = Toxicity in athymic nude BALB/c mouse xenografted with human HCT-116 cells assessed as pathological changes in liver at 5 to 15 mg/kg, ip administered every other day and measured after 14 days by hematoxylin and eosin staining-based microscopic analysis; type: organism-based; conditions: in vivo, 336 h, dose 5-15 mg/kg, time 14 day
HT-29 [6] = test: Induction of apoptosis in human HT-29 cells assessed as viable cells at 5 uM incubated for 24 hrs by Annexin V-FITC/PI staining based flow cytometric analysis (reference value: 93 %); type: functional; conditions: read-out: Activity
HT-29 [7] = test: Induction of autophagy in human HT-29 cells transfected with GFP-LC3 assessed as increase in LC3 dot puncta at 1 to 10 uM incubated for 24 hrs by fluorescence microscopy; type: functional, cell-based; conditions: dose 1-10 µM
HCT-116 [8] = test: Induction of autophagic flux in human HCT-116 cells assessed as increase in LC3I to LC3II conversion preincubated with 3-methyladenine for 1 hr followed by compound addition and measured after 24 hrs by Western blot analysis; type: functional, cell-based
HCT-116 [9] = test: Induction of cell cycle arrest in human HCT-116 cells assessed as accumulation of cells at G0/G1 phase at 5 uM by RNase/PI staining based flow cytometry analysis (reference value: 33.08 %); type: functional
HCT-116 [10] = test: Induction of apoptosis in human HCT-116 cells assessed as inhibition of caspase 3 protein expression measured for 24 hrs by Western blot analysis; type: functional, cell-based; conditions: dose 0-10 µM
Mus musculus [11] = test: In vivo inhibition of NFkappaB activation in athymic BALB/c mouse xenografted with human HCT-116 cells assessed as reduction in IL-8 gene expression in tumor at 15 mg/kg, ip administered every other day and measured after 14 days by qRT-PCR analysis; type: functional, organism-based; conditions: time 14.0 day
HEK-293T = test: Inhibition of Flag-tagged TAK1/HA-tagged TRAF6 (unknown origin) protein-protein interaction transfected in HEK293T cells at 2 uM incubated for 6 hrs by co-immunoprecipitation method; type: cell-based; conditions: Homo sapiens
HCT-116 [12] = test: Induction of cell cycle arrest in human HCT-116 cells assessed as accumulation of cells at S phase at 10 uM by RNase/PI staining based flow cytometry analysis (reference value: 43.77 %); type: functional
HCT-116 [13] = test: Induction of cell cycle arrest in human HCT-116 cells assessed as accumulation of cells at G2/M phase at 10 uM by RNase/PI staining based flow cytometry analysis (reference value: 23.15 %); type: functional
HT-29 [14] = test: Antitumor activity against human HT-29 cells xenografted in athymic nude BALB/c mouse assessed as reduction in tumor volume at 5 to 15 mg/kg, ip administered every other day and measured every other day for 16 days; type: functional, organism-based; conditions: dose 5-15 mg/kg, time 16.0 day
Cell membrane = test: Disruption of mitochondrial membrane potential in human HT-29 cells at upto 10 uM measured after 24 hrs by JC-1 staining based fluorescence microscopy; type: subcellular
[15] = target: T1, Nuclear factor NF-kappa-B complex (Homo sapiens) (UniProt Q00653+P19838+Q04206); test: Inhibition of NFkappaB activation in HEK293T cells transfected with Flag-tagged TRAF2 and kappaB luciferase/pTK-renilla reporters at 2 uM incubated for 6 hrs by Dual Luciferase Reporter Assay; type: cell-based; conditions: HEK-293T
T1 sequence (P19838 whole entry, looked up): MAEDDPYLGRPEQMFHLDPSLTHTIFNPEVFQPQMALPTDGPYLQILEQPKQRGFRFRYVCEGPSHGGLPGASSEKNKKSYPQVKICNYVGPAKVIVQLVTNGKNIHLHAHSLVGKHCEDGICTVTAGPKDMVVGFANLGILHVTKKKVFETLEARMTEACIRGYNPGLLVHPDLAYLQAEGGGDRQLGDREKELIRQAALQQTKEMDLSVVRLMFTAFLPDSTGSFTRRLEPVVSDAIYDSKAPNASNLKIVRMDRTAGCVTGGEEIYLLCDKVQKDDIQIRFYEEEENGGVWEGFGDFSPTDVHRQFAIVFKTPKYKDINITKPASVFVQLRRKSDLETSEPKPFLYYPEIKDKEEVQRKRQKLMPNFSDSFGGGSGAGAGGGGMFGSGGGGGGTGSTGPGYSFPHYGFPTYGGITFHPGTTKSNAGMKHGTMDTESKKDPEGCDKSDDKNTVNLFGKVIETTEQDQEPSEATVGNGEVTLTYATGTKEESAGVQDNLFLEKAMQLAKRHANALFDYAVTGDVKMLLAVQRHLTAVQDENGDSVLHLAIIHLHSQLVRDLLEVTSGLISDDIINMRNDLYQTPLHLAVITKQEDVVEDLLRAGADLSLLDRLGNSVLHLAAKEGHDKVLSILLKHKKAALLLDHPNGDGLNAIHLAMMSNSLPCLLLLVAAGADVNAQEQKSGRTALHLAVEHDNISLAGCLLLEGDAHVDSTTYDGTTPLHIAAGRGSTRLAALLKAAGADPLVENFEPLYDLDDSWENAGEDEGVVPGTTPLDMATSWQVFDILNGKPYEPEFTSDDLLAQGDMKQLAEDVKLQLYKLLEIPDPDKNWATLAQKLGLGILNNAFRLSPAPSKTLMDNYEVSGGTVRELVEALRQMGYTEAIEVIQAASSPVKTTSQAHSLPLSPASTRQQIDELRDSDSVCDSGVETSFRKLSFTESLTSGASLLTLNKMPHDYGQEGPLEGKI
T1 sequence (Q00653 whole entry, looked up): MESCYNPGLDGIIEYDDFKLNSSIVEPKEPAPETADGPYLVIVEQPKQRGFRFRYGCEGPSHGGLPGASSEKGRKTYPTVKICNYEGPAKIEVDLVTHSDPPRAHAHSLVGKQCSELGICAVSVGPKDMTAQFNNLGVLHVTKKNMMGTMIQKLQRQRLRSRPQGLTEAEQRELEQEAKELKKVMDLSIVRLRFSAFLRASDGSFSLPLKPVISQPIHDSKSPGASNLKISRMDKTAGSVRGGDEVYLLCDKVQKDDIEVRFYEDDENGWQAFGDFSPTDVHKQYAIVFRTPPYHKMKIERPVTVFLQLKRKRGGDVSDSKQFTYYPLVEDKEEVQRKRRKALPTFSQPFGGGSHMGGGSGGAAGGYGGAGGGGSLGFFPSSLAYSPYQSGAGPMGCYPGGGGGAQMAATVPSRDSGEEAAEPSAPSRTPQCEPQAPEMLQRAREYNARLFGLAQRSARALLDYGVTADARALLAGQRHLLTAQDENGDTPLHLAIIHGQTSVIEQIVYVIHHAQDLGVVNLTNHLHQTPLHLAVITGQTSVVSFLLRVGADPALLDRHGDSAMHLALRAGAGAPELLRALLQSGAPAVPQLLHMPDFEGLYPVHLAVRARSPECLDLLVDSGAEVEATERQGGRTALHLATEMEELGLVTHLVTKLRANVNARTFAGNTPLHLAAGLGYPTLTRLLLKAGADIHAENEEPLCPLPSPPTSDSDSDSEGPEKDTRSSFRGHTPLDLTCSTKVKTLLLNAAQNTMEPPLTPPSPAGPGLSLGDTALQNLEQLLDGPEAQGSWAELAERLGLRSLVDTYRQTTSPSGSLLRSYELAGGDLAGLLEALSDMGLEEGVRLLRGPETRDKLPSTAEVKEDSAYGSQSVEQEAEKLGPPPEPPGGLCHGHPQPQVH
T1 sequence (Q04206 whole entry, looked up): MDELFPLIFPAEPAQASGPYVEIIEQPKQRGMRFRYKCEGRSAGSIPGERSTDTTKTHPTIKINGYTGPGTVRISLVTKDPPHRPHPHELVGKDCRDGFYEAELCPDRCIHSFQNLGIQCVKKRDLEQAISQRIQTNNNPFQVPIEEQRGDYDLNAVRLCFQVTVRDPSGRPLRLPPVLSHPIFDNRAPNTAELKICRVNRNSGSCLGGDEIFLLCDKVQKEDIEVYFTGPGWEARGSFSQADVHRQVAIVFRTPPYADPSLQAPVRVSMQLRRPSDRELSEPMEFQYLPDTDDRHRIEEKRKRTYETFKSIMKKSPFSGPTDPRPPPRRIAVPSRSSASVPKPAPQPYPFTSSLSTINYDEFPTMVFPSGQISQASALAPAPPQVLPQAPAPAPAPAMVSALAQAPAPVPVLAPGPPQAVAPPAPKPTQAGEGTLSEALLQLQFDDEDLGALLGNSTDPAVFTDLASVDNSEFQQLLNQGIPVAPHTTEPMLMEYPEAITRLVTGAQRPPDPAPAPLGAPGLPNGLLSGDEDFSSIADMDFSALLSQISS

HCT-116 [16] = test: Antitumor activity against human HCT-116 cells xenografted in athymic nude BALB/c mouse assessed as induction of autophagy by measuring reduction in p62 expression in tumor at 15 mg/kg, ip administered every other day and measured after 14 days by immunohistochemistry analysis; type: functional, organism-based; conditions: time 14.0 day
HCT-116 [17] = test: Induction of apoptosis in human HCT-116 cells assessed as viable cells at 5 uM incubated for 24 hrs by Annexin V-FITC/PI staining based flow cytometric analysis (reference value: 88.8%); type: functional; conditions: read-out: Activity
HCT-116 [18] = test: Induction of cell cycle arrest in human HCT-116 cells assessed as accumulation of cells at G0/G1 phase at 1 uM by RNase/PI staining based flow cytometry analysis (reference value: 33.08 %); type: functional
[19] = target: T1, Nuclear factor NF-kappa-B complex (Homo sapiens); test: Inhibition of TNF-alpha induced NFkappaB activation in human HCT-116 cells assessed as inhibition of p65 nuclear translocation at 10 uM pretreated for 6 hrs followed by TNFalpha stimulation for 15 mins by immunohistochemical analysis; type: cell-based; conditions: time 6.25 hrs
HT-29 [20] = test: Induction of apoptosis in human HT-29 cells assessed as viable cells at 0.25 uM incubated for 24 hrs by Annexin V-FITC/PI staining based flow cytometric analysis (reference value: 93 %); type: functional; conditions: read-out: Activity
[21] = target: T1, Nuclear factor NF-kappa-B complex (Homo sapiens); test: Inhibition of TNF-alpha induced NFkappaB activation in human HCT-116 cells assessed as inhibition of p65 phosphorylation at 1 to 10 uM pretreated for 24 hrs followed by TNFalpha stimulation for 10 mins by Western blot analysis; type: cell-based; conditions: dose 1-10 µM, time 1450.0 min
HCT-116 [22] = test: Induction of autophagy in human HCT-116 cells assessed as increase in autophagic vesicles at 1 to 10 uM incubated for 24 hrs MDC staining-based fluorescence microscopy; type: functional, cell-based; conditions: dose 1-10 µM
HCT-116 [23] = test: Induction of cell death in human HCT-116 cells at 0.5 to 10 uM pretreated with Z-VAD-FMK for 1 hr followed by compound addition and measured after 24 hrs by SRB assay; type: functional, cell-based; conditions: dose 0.5-10 µM
HT-29 [24] = test: Induction of autophagy in human HT-29 cells assessed as increase in LC3I to LC3II conversion at 1 to 10 uM incubated for 24 hrs by Western blotting analysis; type: functional, cell-based; conditions: dose 1-10 µM
HT-29 [25] = test: Induction of autophagic flux in human HT-29 cells assessed as increase in LC3 protein expression preincubated with 3-methyladenine for 1 hr followed by compound addition and measured after 24 hrs by Western blot analysis; type: functional, cell-based
HCT-116 [26] = test: Induction of apoptosis in human HCT-116 cells assessed as late apoptotic cells at 5 uM preincubated with Z-VAD-FMK for 1 hr followed by compound addition and measured after 24 hrs by Annexin V-FITC/PI staining based flow cytometric analysis (reference value: 9.37 %); type: functional

C[C@@H]1CC[C@H]2[C@H](C(=O)c3c(O)c([C@@]4(O)CC[C@@H](O)[C@H]5O[C@H]54)cn(O)c3=O)[C@H](C)C=C[C@@H]2C1
Activity (HCT-116 [1]): Dose-Dependent Effect | Activity (HT-29 [2]): 4.04% | Activity (HT-29 [3]): 56.4% | Activity (Mus musculus [4]): Active | inhibition (RAW264.7): Dose-Dependent Effect | Activity [5]: Non-Toxic | viability at 5 µM (HT-29 [6]): 39.3% | Activity (HT-29 [7]): Active | Activity (HCT-116 [8]): Active | Activity (HCT-116 [9]): 44.31% | Activity (HCT-116 [10]): Dose-Dependent Effect | inhibition (Mus musculus [11]): Active | inhibition (HEK-293T): Active | Activity (HCT-116 [12]): 39.08% | Activity (HCT-116 [13]): 14.17% | Activity (HT-29 [14]): Active | Activity (Cell membrane): Active | inhibition [15]: Active | Activity (HCT-116 [16]): Active | viability at 5 µM (HCT-116 [17]): 16.5% | Activity (HCT-116 [18]): 36.23% | inhibition [19]: Active | viability at 0.25 µM (HT-29 [20]): 85.9% | inhibition [21]: Active | Activity (HCT-116 [22]): Active | inhibition (HCT-116 [23]): inactive | Activity (HT-29 [24]): Active | Activity (HT-29 [25]): Active | Activity (HCT-116 [26]): 53.3%
